± gives the standard deviation of the averaged measurements.
System: HepaRG
Experiment: LDH release cytotoxicity, % of total lysis control; higher = more cytotoxic
Conditions: 48 h
Summary of the method: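 HepaRG cells from a single lot were plated on collagen I-coated 96-well plates and treated in duplicate for 48 h with eight-point half-log series of test chemicals, starting at 100 µM, in serum-free induction medium containing 0.5% DMSO. Total lysis wells were given 0.1% Triton X. LDH released into 50 µL of spent medium was measured as resorufin fluorescence with CytoTox-ONE on a Tecan Safire. Percent cytotoxicity was normalized to on-plate vehicle and total lysis controls and then averaged across duplicates.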

Structure (SMILES) | LDH release cytotoxicity (0.03162 µM) [%] | LDH release cytotoxicity (0.1 µM) [%] | LDH release cytotoxicity (0.3162278 µM) [%] | LDH release cytotoxicity (1 µM) [%] | LDH release cytotoxicity (3.16228 µM) [%] | LDH release cytotoxicity (10 µM) [%] | LDH release cytotoxicity (31.6228 µM) [%] | LDH release cytotoxicity (100 µM) [%] | further results
CC(C)[O-].CC(C)[O-].[O-]CCN(CCO)CCO.[O-]CCN(CCO)CCO.[Ti+4] [Isopropyl triethanolamine titanate] | -5.22 ± 4.5 | -1.09 ± 0.96 | -0.881 ± 0.2 | -0.333 ± 0.037 | 0.622 ± 0.39 | 0.156 ± 1.4 | 0.0089 ± 0.55 | 0.6851 ± 0.0067 | –
CC(=NC#N)N(C)Cc1ccc(Cl)nc1 [Acetamiprid] | -2.01 ± 1.8 | -2.67 ± 0.84 | -2.61 ± 0.31 | -2.64 ± 0.13 | -2.01 ± 0.025 | -2.44 ± 1.2 | -2.262 ± 0.022 | 0.254 ± 0.19 | –
CCCCCCCCOC(=O)c1ccc(C(=O)OCCCCCCCC)c(C(=O)OCCCCCCCC)c1 [Tri-n-octyl trimellitate] | – | -3.02 ± 1.1 | – | -1.71 ± 0.9 | -2.25 ± 0.55 | -2.21 ± 0.31 | -0.9931 ± 0.0017 | 1.54 ± 0.94 | LDH release cytotoxicity (0.031623 µM): -2.2 ± 0.31%; LDH release cytotoxicity (0.316228 µM): -2.45 ± 0.77%
CC#CC1(O)CCC2C3CCC4=CC(=O)CCC4=C3C(c3ccc(N(C)C)cc3)CC21C (configuration not stated) [Mifepristone] | -0.549 ± 0.3 | -1.11 ± 0.089 | -0.633 ± 0.052 | 2.47 ± 0.61 | 17.4 ± 0.87 | 31.5 ± 1.6 | 42.2 ± 5.7 | 60.9 ± 3 | –
C/C=C/C=C/C(=O)O [2E,4E-Hexadienoic acid] | -0.745 ± 0.091 | -1.89 ± 0.18 | -1.82 ± 0.54 | -1.07 ± 0.45 | -1.03 ± 0.12 | -1.19 ± 0.023 | -0.323 ± 0.42 | 0.653 ± 1.2 | –
CC12CCC3c4ccc(O)cc4CC(CCCCCCCCCS(=O)CCCC(F)(F)C(F)(F)F)C3C1CCC2O (configuration not stated) [Fulvestrant] | -1.87 ± 0.22 | -1.62 ± 0.93 | -0.633 ± 0.4 | -1.01 ± 0.37 | -1.1 ± 0.47 | -0.0401 ± 1.7 | -3.17 ± 0.35 | 3.92 ± 6.4 | –
O=[N+]([O-])c1ccc(Cl)cc1 [1-Chloro-4-nitrobenzene] | -0.012 ± 0.35 | -0.728 ± 0.66 | 0.037 ± 0.14 | -0.523 ± 0.12 | -0.0534 ± 0.38 | 0.685 ± 0.47 | 5.08 ± 0.88 | 18 ± 1.8 | –
CCC(C)C(=O)OC1CC(C)C=C2C=CC(C)C(CCC3CC(O)CC(=O)O3)C21 (configuration not stated) [Lovastatin] | – | -2.24 ± 2.7 | – | -3.8 ± 0.94 | -3.98 ± 0.75 | -3.52 ± 0.1 | -3.4 ± 0.086 | 1.06 ± 0.76 | LDH release cytotoxicity (0.031623 µM): -0.879 ± 0.35%; LDH release cytotoxicity (0.316228 µM): -3.24 ± 1.1%
CCCCCCC(C)OC(=O)COc1nc(F)c(Cl)c(N)c1Cl (configuration not stated) [Fluroxypyr-meptyl] | – | -0.123 ± 1.8 | – | -0.348 ± 1.1 | -7.7 ± 0.78 | 8.36 ± 3.8 | -0.641 ± 0.61 | -0.963 ± 0.71 | LDH release cytotoxicity (0.031623 µM): 1.23 ± 0.18%; LDH release cytotoxicity (0.316228 µM): 0.191 ± 1%
O=[N+]([O-])c1ccc(O)cc1 [4-Nitrophenol] | -0.152 ± 0.3 | -1.48 ± 0.38 | -1.18 ± 0.11 | -1.8 ± 1.2 | -0.936 ± 0.28 | -1.26 ± 0.099 | -0.409 ± 0.81 | -0.082 ± 0.47 | –
CCC(=CC(N=O)C(N)=O)C(C)[N+](=O)[O-] (configuration not stated) | -0.841 ± 0.13 | -1.13 ± 0.46 | -0.143 ± 1 | -0.487 ± 0.72 | -0.165 ± 0.14 | 0.0592 ± 0.5 | 0.411 ± 0.23 | 1.12 ± 0.8 | –
Nc1cccc(N)c1 [1,3-Benzenediamine] | -1.18 ± 0.7 | -2.11 ± 0.27 | -1.93 ± 0.12 | -1.36 ± 0.52 | -1 ± 0.48 | -0.806 ± 0.47 | -1.17 ± 0.023 | 0.323 ± 1.3 | –
COc1ccc(OC(F)(F)F)cc1CNC1CCCNC1c1ccccc1 (configuration not stated) | -0.49 ± 0.062 | -0.83 ± 0.43 | -1.38 ± 0.18 | -1.02 ± 1.2 | -1.52 ± 1.2 | -0.56 ± 0.84 | 5.16 ± 0.72 | 88 ± 10 | –
Oc1ccc(Cl)cc1Cl [2,4-Dichlorophenol] | – | – | – | – | – | – | – | – | LDH release cytotoxicity (0.03305 µM): -0.867 ± 0.13%; LDH release cytotoxicity (0.1045 µM): -1.22 ± 0.36%; LDH release cytotoxicity (0.330458 µM): -1.99 ± 0.46%; LDH release cytotoxicity (1.045 µM): -1.67 ± 0.36%; LDH release cytotoxicity (3.30458 µM): -1.98 ± 0.042%; LDH release cytotoxicity (10.45 µM): -1.68 ± 0.079%; LDH release cytotoxicity (33.0458 µM): -2.38 ± 0.071%; LDH release cytotoxicity (104.5 µM): -0.904 ± 0.016%
COC(=O)c1ccccc1C(=O)OC [Dimethyl phthalate] | -0.705 ± 0.12 | -1.99 ± 0.097 | -1.58 ± 0.53 | -2.6 ± 0.29 | -1.11 ± 0.29 | -0.678 ± 0.68 | -0.11 ± 0.75 | 1.18 ± 0.58 | –
COCCOc1cc2cc(C(=O)NC3CCN(C(C)C)CC3)n(CC(=O)Nc3ccc(Cl)cn3)c2cn1 | -0.433 ± 0.89 | -0.956 ± 0.47 | -0.802 ± 0.14 | -1.56 ± 0.7 | -0.955 ± 0.44 | -0.194 ± 0.17 | 13.4 ± 1 | 96.77 ± 0.093 | –
CC1(c2ccc(Oc3ccccc3)cc2)OC(=O)N(Nc2ccccc2)C1=O (configuration not stated) [Famoxadone] | – | – | – | – | – | – | – | – | LDH release cytotoxicity (0.0317809 µM): -0.255 ± 0.56%; LDH release cytotoxicity (0.1005 µM): -1.03 ± 0.34%; LDH release cytotoxicity (0.317809 µM): -0.879 ± 1.4%; LDH release cytotoxicity (1.005 µM): -1.52 ± 0.023%; LDH release cytotoxicity (3.17809 µM): -2.56 ± 0.49%; LDH release cytotoxicity (10.05 µM): 10.7 ± 2.7%; LDH release cytotoxicity (31.7809 µM): 18.1 ± 3.1%; LDH release cytotoxicity (100.5 µM): 64.5 ± 2.4%
CC(C)COC(=O)CCCCC(=O)OCC(C)C [Diisobutyl adipate] | -1.813 ± 0.015 | -2.01 ± 0.88 | -0.902 ± 0.055 | -2.26 ± 0.4 | -2.38 ± 0.66 | -0.129 ± 0.52 | 7.28 ± 1 | 46.4 ± 4.1 | –
O=C1C(=O)C(c2ccc(O)c(O)c2)Oc2cc(O)cc(O)c21 (configuration not stated) [Quercetin] | -0.715 ± 0.19 | -0.382 ± 0.42 | -1.09 ± 0.51 | -1.24 ± 0.47 | -0.569 ± 0.57 | -1.09 ± 0.29 | -1.1 ± 0.47 | 10.6 ± 1.9 | –

From the supplement of paper PMC7840683
